This is an account of results in ChEMBL document CHEMBL5625233, “Exploring positions 6 and 7 of a quinazoline-based scaffold leads to changes in selectivity and potency towards RIPK2/3 kinases” (Eur J Med Chem, 2023).

Activity calls are given as the source filed them. The rule behind the calls is not given here.

The target in assay [1] is T1, Receptor-interacting serine/threonine-protein kinase 4 (Homo sapiens, UniProt P57078).
T1 sequence (P57078 whole entry): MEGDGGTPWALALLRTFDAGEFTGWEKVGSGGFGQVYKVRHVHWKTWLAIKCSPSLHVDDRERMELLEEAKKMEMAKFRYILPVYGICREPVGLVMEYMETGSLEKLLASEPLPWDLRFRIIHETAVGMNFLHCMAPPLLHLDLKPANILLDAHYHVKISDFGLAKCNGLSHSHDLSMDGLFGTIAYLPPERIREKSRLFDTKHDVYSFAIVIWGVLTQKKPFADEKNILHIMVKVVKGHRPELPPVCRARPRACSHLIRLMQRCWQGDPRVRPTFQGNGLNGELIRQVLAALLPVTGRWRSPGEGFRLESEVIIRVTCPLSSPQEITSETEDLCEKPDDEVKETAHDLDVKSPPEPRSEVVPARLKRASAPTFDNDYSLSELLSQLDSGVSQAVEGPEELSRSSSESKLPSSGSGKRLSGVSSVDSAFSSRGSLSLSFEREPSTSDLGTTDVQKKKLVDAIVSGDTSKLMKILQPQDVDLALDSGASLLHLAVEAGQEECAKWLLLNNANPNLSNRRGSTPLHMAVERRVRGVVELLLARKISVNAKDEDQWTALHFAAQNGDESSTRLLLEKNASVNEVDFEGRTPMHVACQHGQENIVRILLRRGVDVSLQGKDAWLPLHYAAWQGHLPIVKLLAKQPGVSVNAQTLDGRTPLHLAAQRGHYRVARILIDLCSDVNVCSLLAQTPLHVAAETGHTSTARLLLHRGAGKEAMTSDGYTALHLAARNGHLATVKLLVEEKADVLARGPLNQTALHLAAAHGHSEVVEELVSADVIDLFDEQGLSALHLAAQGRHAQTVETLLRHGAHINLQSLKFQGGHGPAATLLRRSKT
Description: Inhibition of N-terminal polyHis-tagged human RIPK4 (1 to 321 residues) expressed in Sf9 cells using MBP as substrate preincubated for 15 mins followed by ATP addition measured after 90 mins by ADP-Glo assay. In general terms: ADP-Glo first removes unused ATP, then detects ADP through luciferase.

Assay [2] has as its target T2, Receptor-interacting serine/threonine-protein kinase 2 (Homo sapiens, UniProt O43353). Description: Inhibition of N-terminal polyHis-tagged human RIPK2 (8 to 310 residues) expressed in Sf9 cells using MBP as substrate preincubated for 15 mins followed by ATP addition measured after 90 mins by ADP-Glo assay.
The target of assay [3] is T2, Receptor-interacting serine/threonine-protein kinase 2. Description: Inhibition of RIPK2-mediated NF-kappaB signalling in C14-TriLAN-Gly-treated human THP-1 cells preincubated for 30 mins followed by C14-TriLAN-Gly addition measured after 24 hrs by luminescence based assay. The class given is cell-based.
The target of assay [4] is T3, Receptor-interacting serine/threonine-protein kinase 3 (Homo sapiens, UniProt Q9Y572). The experiment in a line: Inhibition of N-terminal polyHis-tagged human RIPK3 (1 to 307 residues) expressed in Sf9 cells using MBP as substrate preincubated for 15 mins followed by ATP addition measured after 90 mins by ADP-Glo assay.
Target sequence in this assay (Q9Y572 whole entry, the tested form may be a part): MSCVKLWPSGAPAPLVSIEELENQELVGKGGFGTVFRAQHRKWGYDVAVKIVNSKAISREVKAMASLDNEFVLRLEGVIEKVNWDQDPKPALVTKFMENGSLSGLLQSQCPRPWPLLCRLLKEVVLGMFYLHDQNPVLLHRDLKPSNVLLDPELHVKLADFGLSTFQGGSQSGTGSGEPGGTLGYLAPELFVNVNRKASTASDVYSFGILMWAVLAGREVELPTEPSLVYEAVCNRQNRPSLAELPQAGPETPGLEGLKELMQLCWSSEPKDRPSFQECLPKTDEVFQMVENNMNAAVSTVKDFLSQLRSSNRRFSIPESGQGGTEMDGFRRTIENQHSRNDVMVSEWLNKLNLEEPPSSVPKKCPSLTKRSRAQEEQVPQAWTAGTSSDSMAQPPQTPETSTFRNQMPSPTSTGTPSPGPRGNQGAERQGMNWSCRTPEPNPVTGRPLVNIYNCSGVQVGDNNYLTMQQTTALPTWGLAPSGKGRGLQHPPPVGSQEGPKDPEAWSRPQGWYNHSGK
For assay [5], the target named is T4, Receptor-interacting serine/threonine-protein kinase 1 (Homo sapiens, UniProt Q13546).
T4 sequence (Q13546 whole entry): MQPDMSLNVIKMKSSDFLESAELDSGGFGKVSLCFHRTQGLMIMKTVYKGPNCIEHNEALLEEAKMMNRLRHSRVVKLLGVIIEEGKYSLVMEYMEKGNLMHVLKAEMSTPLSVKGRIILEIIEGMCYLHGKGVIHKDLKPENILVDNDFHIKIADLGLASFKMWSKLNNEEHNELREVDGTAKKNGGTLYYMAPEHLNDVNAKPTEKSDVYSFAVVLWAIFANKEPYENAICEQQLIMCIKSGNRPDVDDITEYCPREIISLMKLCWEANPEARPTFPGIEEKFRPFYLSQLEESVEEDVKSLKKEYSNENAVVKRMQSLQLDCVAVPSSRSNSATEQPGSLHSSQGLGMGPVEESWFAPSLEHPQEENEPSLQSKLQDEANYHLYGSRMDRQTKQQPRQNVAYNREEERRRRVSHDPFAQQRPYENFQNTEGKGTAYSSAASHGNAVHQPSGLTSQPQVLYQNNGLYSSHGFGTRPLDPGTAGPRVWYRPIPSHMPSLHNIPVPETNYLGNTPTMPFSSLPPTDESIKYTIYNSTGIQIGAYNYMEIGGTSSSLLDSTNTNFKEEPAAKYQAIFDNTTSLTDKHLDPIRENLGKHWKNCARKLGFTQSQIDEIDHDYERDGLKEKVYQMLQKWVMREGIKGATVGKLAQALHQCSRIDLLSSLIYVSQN
The experiment in a line: Inhibition of N-terminal polyHis-tagged human RIPK1 (1 to 321 residues) expressed in Sf9 cells using MBP as substrate preincubated for 15 mins followed by ATP addition measured after 90 mins by ADP-Glo assay.

Assay [6] addresses T2, Receptor-interacting serine/threonine-protein kinase 2. Description: Inhibition of RIPK2-mediated NF-kappaB signalling in MDP-treated human THP-1 cells preincubated for 30 mins followed by MDP addition measured after 24 hrs by luminescence based assay. The format is cell-based.
Assay [7] has the same target. The experiment in a line: Inhibition of RIPK2-mediated NF-kappaB signalling in C14-TriLAN-Gly-treated human THP-1 cells upto 10 uM preincubated for 30 mins followed by C14-TriLAN-Gly addition measured after 24 hrs by luminescence based assay. The format is cell-based.
In assay [8] the target is T3, Receptor-interacting serine/threonine-protein kinase 3. Description: Inhibition of N-terminal polyHis-tagged human RIPK3 (1 to 307 residues) expressed in Sf9 cells using MBP as substrate upto 10 uM preincubated for 15 mins followed by ATP addition measured after 90 mins by ADP-Glo assay. Particulars: time 105.0 min.
Target sequence in this assay (Q9Y572 whole entry, looked up, the tested form may be a part): as the sequence (Q9Y572 whole entry, the tested form may be a part) above
Assay [9] has as its target T2, Receptor-interacting serine/threonine-protein kinase 2. The experiment in a line: Inhibition of RIPK2-mediated NF-kappaB signalling in MDP-treated human THP-1 cells upto 10 uM preincubated for 30 mins followed by MDP addition measured after 24 hrs by luminescence based assay. The format is cell-based.

T2 sequence (O43353 whole entry, the tested form may be a part): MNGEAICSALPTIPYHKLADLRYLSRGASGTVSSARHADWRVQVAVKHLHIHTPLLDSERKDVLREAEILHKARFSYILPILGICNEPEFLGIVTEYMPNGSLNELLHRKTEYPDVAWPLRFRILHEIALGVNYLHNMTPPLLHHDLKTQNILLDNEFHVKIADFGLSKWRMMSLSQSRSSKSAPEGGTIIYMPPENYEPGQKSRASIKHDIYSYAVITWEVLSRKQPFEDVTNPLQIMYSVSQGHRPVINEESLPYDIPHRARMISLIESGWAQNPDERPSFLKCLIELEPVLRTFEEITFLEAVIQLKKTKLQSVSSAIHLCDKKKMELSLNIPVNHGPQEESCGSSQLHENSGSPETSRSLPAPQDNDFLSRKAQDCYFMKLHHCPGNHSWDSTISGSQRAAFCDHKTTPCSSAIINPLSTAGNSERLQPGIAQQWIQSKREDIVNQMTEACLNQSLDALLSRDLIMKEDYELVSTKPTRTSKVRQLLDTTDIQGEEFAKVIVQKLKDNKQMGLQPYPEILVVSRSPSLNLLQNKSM

As usually defined, the IC50 is the point on the concentration scale where inhibition reaches its midpoint. Higher therefore signals weaker potency. On to `Cn1nc(C(F)(F)F)cc1-c1cc2c(Nc3ccc4scnc4c3)ncnc2cc1Cl`, for which the IC50 in assay [1] is > 50 µM; in assay [2], 0.324 µM; in [3] it was 4.57 µM; in assay [4] it was 2.6 µM; in assay [5] it was > 50 µM; in [6], 3.36 µM.

On to `Cn1cc(-c2ccc3ncnc(Nc4ccc5scnc5c4)c3c2)cn1`, for which the IC50 in assay [1] is > 50 µM; in [2] it was 0.004 µM; in assay [3], 0.047 µM; in assay [4], 1.5 µM; in assay [5], > 50 µM; in [6], 0.038 µM.

Consider `c1nc(Nc2ccc3scnc3c2)c2cc(-c3cc[nH]n3)ccc2n1`, for which the IC50 in assay [1] is > 50 µM; in [2] it was 0.006 µM; in assay [3] it was 0.114 µM; in assay [4], 2.1 µM; in assay [5], > 50 µM; in [6] it was 0.068 µM.

On to `CC(C)S(=O)(=O)c1ccc2nccc(Nc3ccc4scnc4c3)c2c1`, for which the results for the 50% inhibitory concentration (IC50) in assay [2], in assay [3] and in assay [6] were 0.002 µM, 0.009 µM and 0.004 µM, respectively.

On to `Cc1ncc(-c2ccc3ncnc(Nc4ccc5scnc5c4)c3c2)s1`, for which the half-maximal inhibitory concentration (IC50) in [1] was > 50 µM; in assay [2] it was 0.004 µM; in assay [3], 0.136 µM; in assay [4], 6 µM; in assay [5], > 50 µM; in assay [6] it was 0.108 µM.

On to `Cc1cscc1-c1ccc2ncnc(Nc3ccc4scnc4c3)c2c1`, for which the IC50 in assay [1] was > 50 µM; in assay [2], 0.029 µM; in assay [3] it was 4.43 µM; in assay [4] it was 1.9 µM; in [5], > 50 µM; in assay [6] it was 1.53 µM.

As to `Cc1cscc1-c1cc2c(Nc3ccc4scnc4c3)ncnc2cc1Cl`, the IC50 was > 50 µM in assay [1]; 0.104 µM in assay [2]; > 50 µM in assay [5]; “Not Active” in [7]; 2.08 µM in assay [6]. The inhibition entry in assay [8] was “inactive”.

Consider `Cn1cccc1-c1ccc2ncnc(Nc3ccc4scnc4c3)c2c1`, for which the IC50 in assay [1] was > 50 µM; in assay [2] it was 0.022 µM; in assay [3] it was 0.726 µM; in assay [4], 2.9 µM; in assay [5] it was > 50 µM; in assay [6], 0.523 µM.

As for `Cn1cnc(-c2cc3c(Nc4ccc5scnc5c4)ncnc3cc2Cl)c1`, the IC50 was > 50 µM in [1]; 0.01 µM in assay [2]; 0.208 µM in [3]; > 50 µM in assay [5]; 0.14 µM in [6]. Besides, the inhibition entry in assay [8] is “inactive”.

Regarding `Cc1ncc(-c2cc3c(Nc4ccc5scnc5c4)ncnc3cc2Cl)s1`, the IC50 in assay [1] was > 50 µM; in assay [2] it was 0.005 µM; in assay [3] it was 0.156 µM; in assay [5], > 50 µM; in [6] it was 0.103 µM. For the same molecule, the inhibition entry in assay [8] was “inactive”.

In the case of `c1ccc(-c2ccc3ncnc(Nc4ccc5scnc5c4)c3c2)cc1`, the IC50 in assay [1] was > 50 µM; in assay [2], 0.018 µM; in assay [3], 4.36 µM; in [4], 3.6 µM; in assay [5], > 50 µM; in assay [6] it was 2.13 µM.

Take `Cc1ncc(-c2ccc3ncnc(Nc4ccc5scnc5c4)c3c2)n1C`: the half-maximal inhibitory concentration (IC50) in assay [1] was > 50 µM; in assay [2], 0.009 µM; in assay [3] it was 0.143 µM; in assay [5], > 50 µM; in [6], 0.24 µM. Also, the inhibition result in assay [8] is “inactive”.

Turning to `OCc1cccc(-c2cc3ncnc(Nc4ccc5scnc5c4)c3cc2-c2cccs2)c1`, the IC50 was > 50 µM in assay [1]; 0.005 µM in [2]; 0.432 µM in assay [3]; 0.551 µM in assay [4]; > 50 µM in [5]; 0.396 µM in assay [6].

As to `Cn1nccc1-c1cc2c(Nc3ccc4scnc4c3)ncnc2cc1Cl`, the IC50 in assay [1] was > 50 µM; in [2], 0.018 µM; in assay [3], 0.313 µM; in assay [4], 1.6 µM; in assay [5], > 50 µM; in assay [6], 0.318 µM.

Regarding `CC(C)(C)S(=O)(=O)c1cc2c(Nc3ccc4scnc4c3)ncnc2cc1OCCOP(=O)(O)O`, the values for the IC50 in assay [2], in [3] and in [6] were 0.004 µM, 0.092 µM and 0.038 µM, respectively. Moreover, in [8], the inhibition result was “inactive”.

In the case of `Clc1cc2ncnc(Nc3ccc4scnc4c3)c2cc1-c1cc[nH]n1`, the IC50 in assay [1] is > 50 µM; in assay [2], 0.01 µM; in assay [3], 0.155 µM; in assay [9], “Not Active”; in assay [5], > 50 µM. For the same molecule, the inhibition entry in assay [8] is “inactive”.

As for `Cn1ccnc1-c1ccc2ncnc(Nc3ccc4scnc4c3)c2c1`, the IC50 in [1] is > 50 µM; in assay [2], 0.012 µM; in [3], 0.239 µM; in assay [5], > 50 µM; in [6], 0.273 µM. Moreover, in assay [8], the inhibition entry is “inactive”.

Turning to `Cc1ccsc1-c1ccc2ncnc(Nc3ccc4scnc4c3)c2c1`, the IC50 in assay [1] is > 50 µM; in [2] it was 0.006 µM; in assay [3] it was 0.438 µM; in assay [4] it was 0.388 µM; in [5], > 50 µM; in assay [6], 0.362 µM.

For the molecule `Cc1ncc(-c2cc3c(Nc4ccc5scnc5c4)ncnc3cc2Cl)n1C`, the IC50 in assay [1] is > 50 µM; in [2] it was 0.01 µM; in assay [3], 0.189 µM; in assay [5] it was > 50 µM; in assay [6], 0.096 µM. The inhibition result in assay [8] was “inactive”.

Take `Cc1csc(-c2ccc3ncnc(Nc4ccc5scnc5c4)c3c2)n1`: the IC50 was > 50 µM in assay [1]; 0.005 µM in assay [2]; 2.75 µM in [3]; 0.382 µM in [4]; “Not Active” in assay [9]; > 50 µM in [5].

Regarding `Cn1cc(-c2cc3c(Nc4ccc5scnc5c4)ncnc3cc2Cl)cn1`, the IC50 in [1] is > 50 µM; in assay [2] it was 0.004 µM; in assay [3], 0.067 µM; in assay [5], > 50 µM; in assay [6], 0.063 µM. In assay [8], the inhibition result is “inactive”.

For `Cn1cnc(-c2ccc3ncnc(Nc4ccc5scnc5c4)c3c2)c1`, the IC50 in [1] was > 50 µM; in assay [2], 0.011 µM; in [3], 0.209 µM; in [5], > 50 µM; in assay [6], 0.095 µM. For the same molecule, the inhibition entry in [8] was “inactive”.
